Measurements: US20080031839A1, “Agent For Prermanent Hair Processing” (Showa Denko K.K., priority 2004, published 2008)
Counter-ions that a name gives are not always drawn.

Assay: Permanent wave processing of hair, wave efficiency by Kilby method
Conditions: for Wave efficiency: compound at 2% in terms of reducing power of thioglycolic acid, soaked at 35° C. for 20 minutes, bromate second liquid 25° C. 10 minutes
Procedure: A permanent wave first liquid was prepared as described below using the alkoxyalkyl mercaptocarboxylate (TGE-1) obtained in Synthetic Example 1. A permanent wave second liquid was prepared as described below. Hair was permanent waved with these liquids, and the wave efficiency was obtained.
[…] The mixing was performed such that the total amount would be 100 g. A permanent wave first liquid was thus prepared.
The agent contained TGE-1 in an amount of 2% in terms of reducing power of thioglycolic acid.
5 g of sodium bromate and 95 g of purified water were mixed together to give a permanent wave second liquid.
The wave efficiency was evaluated by a Kilby method as described in Fragrance Journal Extra Edition (1984, No. 5, P. 442). A liquid containing cysteamine hydrochloride was used as the comparative agent.
Chinese hair (approximately 20 cm long) was fixed to a Kilby apparatus and was soaked in the permanent wave first liquid heated to 35° C. over a period of 20 minutes. Thereafter, the hair was lightly towel dried such that the first liquid would not drip. The hair was then given the bromate-based permanent wave second liquid, and was allowed to stand at 25° C. for 10 minutes. After the completion of the treatment with the second liquid, the hair was rinsed with running water and was removed from the Kilby apparatus, followed by drying. The dried hair was measured and the wave efficiency was determined from the following equation. Wave efficiency(%)=100−[100×(B−A)]÷(C−A) wherein:
A: Distance between the first and sixth rods of the Kilby apparatus (actual measurement value between the central points of the rods)
B: Length of six waves of curled hair
C: Length of straightened six waves of curled hair
A permanent wave first liquid was prepared as described in Example 1, except that TGE-1 was replaced with the alkoxyalkyl mercaptocarboxylate indicated in Table 1. The permanent wave first liquid contained the alkoxyalkyl mercaptocarboxylate in an amount of 2% in terms of reducing power of thioglycolic acid.
Hair was permanent waved and the wave efficiency was obtained by the procedure of Example 1 with use of the permanent wave first liquid prepared as above and the permanent wave second liquid used in Example 1.
A permanent wave first liquid was prepared as described in Example 1, except that TGE-1 was replaced with the cysteamine hydrochloride indicated in Table 1. The permanent wave first liquid contained the […] in an amount of 2% in terms of reducing power of thioglycolic acid.

Row | Compound | Wave efficiency (pH 6 first liquid) | Wave efficiency (pH 7.5 first liquid) | Wave efficiency (pH 9 first liquid) | Behaviour of wave efficiency across pH range (neutral to acidic versus alkaline pH, summary of Table 1)
1 | 2-butoxyethyl thiolactate [TNE-3] | 73% | 73% | 72% | –
2 | NCCS [Cysteamine hydrochloride, cysteamine hydrochloride, reference compound] | 52% | 65% | 73% | drastic deterioration of wave efficiency with the pH lowering to a neutral to acidic region
3 | CCOCCOC(=O)CS [TGE-2, 2-ethoxyethyl thioglycolate] | 84% | 87% | 86% | –
4 | CCCCOCCOC(=O)CS [TGE-3, 2-butoxyethyl thioglycolate] | 79% | 79% | 82% | –
5 | CCOCCOCCOC(=O)CS [TGE-5, 5-ethoxy-3-oxapentyl thioglycolate] | 70% | 70% | 71% | –
6 | COCCOCCOCCOC(=O)CS [TGE-6, 8-methoxy-3,6-dioxaoctyl thioglycolate] | 63% | 67% | 65% | –
7 | COCC(C)OC(=O)CS (stereo not shown) [TGE-7, 2-methoxy-1-methylethyl thioglycolate] | 79% | 81% | 81% | –
8 | CCOCC(C)OC(=O)CS (stereo not shown) [TGE-8, 2-ethoxy-1-methylethyl thioglycolate] | 80% | 82% | 83% | –
9 | COCCOCCOCCOC(=O)CS [TGE-9, 8-methoxy-3,6-dioxaoctyl thioglycolate] | 75% | 75% | 76% | –
